Two molecules from patent US7087736B1, “Tyrosine DNA phosphodiesterases (TDP) and related polypeptides nucleic acids vectors TDP producing host cells antibodies and methods of use” (priority 1999, dated 2006) can be followed below.

The subject of this test is Saccharomyces cervisiae strains (parental, enz mutant, HNY243, HNY244). Kind of test: Sensitivity of yeast strains to killing by drug (colony survival after 24 hrs). Type of test: cell-based. From the text:
The strains were compared for sensitivity to killing by camptothecin. Despite the dramatic difference in TDP activity, the parental line and the backcrossed enz mutant were insensitive to camptothecin. When combined with a disruption of the RAD9 gene, the camptothecin sensitivity of the low activity mutant (strain HNY244) was increased by a factor of 12 relative to the rad9 derivative of the parental strain HNY243. The same difference was observed after the mutant had undergone two additional rounds of backcrossing. In order to confirm that camptothecin-induced damage was due to topoisomerase trapping, the TOP1 gene of HNY244 was disrupted and survival increased nearly 1,000-fold.
Each pool was separately grown and treated with camptothecin for 24 hours. Cells were grown to near-saturation in medium with glycerol in place of dextrose (YPG) to ensure a starting population with few or no petite derivatives in accordance with standard methods. These cells were resuspended at OD650=0.4 in YPD (bacto-yeast extract, peptone and dextrose standard yeast growth medium), grown for 2 hrs and diluted again in YPD to OD650=0.4. Drug was then added and samples were withdrawn immediately and after 24 hrs at 30° C. After dilution and plating on YPD, surviving colonies were counted after 3-4 days of growth. When plasmid-containing strains were assessed for camptothecin sensitivity, YPD was replaced throughout by uracil-deficient minimal medium to ensure plasmid retention. The survivors were amplified by growth in YPD.

For the molecule `COS(C)(=O)=O` [methyl methane sulfonate], the “sensitization of the mutant line to killing” value (low TDP activity mutant line) is given as “not sensitized”.

On to `CC[C@@]1(O)C(=O)OCc2c1cc1n(c2=O)Cc2cc3ccccc3nc2-1` [camptothecin], for which, under “HNY243 with YBR223c ORF disrupted”, the “camptothecin sensitivity of YBR223c disruption strain” value was “very similar to that of HNY244”. Further, where the note is “HNY244 transformed with pNS2 or pAXb”, the “camptothecin resistance after transformation” value was “improved camptothecin resistance”. Besides, the “sensitivity to killing by camptothecin” value (backcrossed enz mutant (low TDP activity)) is listed as “insensitive” and the “sensitivity to killing by camptothecin” value (parental line (normal TDP activity)) was “insensitive”. The “increase of camptothecin sensitivity relative to rad9 derivative of parental strain HNY243” value (low activity mutant with RAD9 disruption (strain HNY244)) was found to be 12 factor. Besides, the “increase of survival after disruption of TOP1 gene” value (strain HNY244 with TOP1 disrupted, camptothecin-induced damage) is listed as ~1,000 fold.
